From patent publication US20240174662A1, “SMALL MOLECULE INHIBITORS OF SALT INDUCIBLE KINASES” (Janssen Biotech, Inc., priority 2021, published 2024)
pIC50: −log10 of the molar value.

Legend:
SIK2 [1] = molecular target: T1, SIK2 (Homo sapiens (Human), UniProt Q9H0K1); experiment: SIK2 Enzymatic Assay Version 1 (ADP Glo); type: biochemical; conditions: 80 μM ATP and 70 μM HDAC5tide final, ADPGlo luminescence
Procedure: All steps were performed at room temperature. Compounds were pre-plated onto an assay plate using an Echo acoustic dispenser (Labcyte, E550 or E555) at 20 nL per well. Enzyme prepared in Assay Buffer at 0.6 nM (2× final concentration) was added at 2 μL per well using the Multidrop Combi (Thermo Fisher-used for all additions in this assay) to the assay plate, spun for 1 min at 800-850 rpm (Allegra 6KR Beckman Coulter centrifuge), and incubated with compound for 30 minutes. Assay Buffer containing 160 μM ATP and 140 μM HDAC5tide (2× of final concentration for each substrate) was added at 2 μL per well to the assay plate and then spun as above and incubated for 4 hours.
One column of wells was dedicated to a no-peptide negative control (containing only ATP). ADPGlo Reagent (prepared and aliquoted as per manufacturer instructions) was then added at 2 μL per well, spun and incubated for 40 min. ADPGlo Detection (prepared and aliquoted as per manufacturer instructions) was added at 2 μL per well to the assay plate, which was spun and incubated for at least 30 min. The plate was then read on the Pherastar (BMG Labtech) using a luminescence read. Gain was set by the 0.1 mM concentration of ADP wells in the ADP/ATP standard curve plate generated as per manufacturer instructions.

SIK2 [2] = molecular target: T1, SIK2; experiment: SIK2 Enzymatic Assay Version 2 (High ATP); type: biochemical; conditions: 3 mM ATP and 200 μM HDAC5tide final, ADP-Glo Max luminescence
How it was run: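 Luminescent ADP-Glo Max read-out: depletion reagent 2 h, then detection reagent 1 h. Before the reaction, compounds were incubated 30 min with enzyme added at 6 nM (twice final concentration), with all steps at room temperature.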

T1 sequence (Q9H0K1 whole entry, species assumed): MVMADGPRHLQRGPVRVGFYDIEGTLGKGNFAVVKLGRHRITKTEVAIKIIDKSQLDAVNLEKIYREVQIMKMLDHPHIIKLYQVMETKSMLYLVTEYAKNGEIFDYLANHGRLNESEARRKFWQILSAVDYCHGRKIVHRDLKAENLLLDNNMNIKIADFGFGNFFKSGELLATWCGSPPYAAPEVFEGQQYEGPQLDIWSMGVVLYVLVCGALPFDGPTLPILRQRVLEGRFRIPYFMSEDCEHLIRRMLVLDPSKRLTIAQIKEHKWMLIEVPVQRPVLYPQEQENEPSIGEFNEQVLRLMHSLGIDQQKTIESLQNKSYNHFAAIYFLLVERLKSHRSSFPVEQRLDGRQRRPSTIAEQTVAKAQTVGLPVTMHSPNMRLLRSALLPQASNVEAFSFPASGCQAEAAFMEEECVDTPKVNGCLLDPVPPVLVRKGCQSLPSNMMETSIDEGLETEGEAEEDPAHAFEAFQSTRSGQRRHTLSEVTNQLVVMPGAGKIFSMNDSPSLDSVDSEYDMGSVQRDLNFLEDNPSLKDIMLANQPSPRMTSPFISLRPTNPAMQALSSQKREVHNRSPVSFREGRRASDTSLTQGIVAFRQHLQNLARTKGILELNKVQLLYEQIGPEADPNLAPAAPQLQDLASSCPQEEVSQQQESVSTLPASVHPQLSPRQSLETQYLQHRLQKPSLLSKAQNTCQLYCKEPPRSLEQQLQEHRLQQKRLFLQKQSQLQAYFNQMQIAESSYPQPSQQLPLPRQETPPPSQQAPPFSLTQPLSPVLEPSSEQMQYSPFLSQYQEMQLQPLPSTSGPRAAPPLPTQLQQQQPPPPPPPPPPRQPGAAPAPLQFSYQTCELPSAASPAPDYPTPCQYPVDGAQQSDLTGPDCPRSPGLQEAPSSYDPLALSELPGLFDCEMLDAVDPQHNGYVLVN

CN1CC[C@@H](Oc2cnn(C)c2-c2ccn3nc(NC(=O)C4CC4)cc3c2)C1 [Example 488, N-[5-[2-methyl-4-[(3R)-1-methylpyrrolidin-3-yl]oxy-pyrazol-3-yl]pyrazolo[1,5-a]pyridin-2-yl]cyclopropanecarboxamide]
pIC50 (SIK2 [1]): 8.19 | pIC50 (SIK2 [2]): 6.37

CN1CCO[C@H](COc2cnn(C)c2-c2ccn3nc(NC(=O)C4CC4)cc3c2)C1 [Example 487]
pIC50 (SIK2 [1]): 7.89 | pIC50 (SIK2 [2]): 6.48

Cc1oncc1-c1ccn2nc(NC(=O)C3CC3)cc2c1 [Example 486, N-[5-(5-methylisoxazol-4-yl)pyrazolo[1,5-a]pyridin-2-yl]cyclopropanecarboxamide]
pIC50 (SIK2 [1]): 7.40

Cn1ccc(CN2CC[C@@H]2COc2cnn(C)c2-c2ccn3nc(NC(=O)C4CC4)cc3c2)n1 [Example 430, N-[5-[2-methyl-4-[[(2R)-1-[(1-methylpyrazol-3-yl)methyl]azetidin-2-yl]methoxy]pyrazol-3-yl]pyrazolo[1,5-a]pyridin-2-yl]cyclopropanecarboxamide]
pIC50 (SIK2 [2]): 7.01

Cn1ncc(O[C@H]2CCNC2)c1-c1ccn2nc(NC(=O)C3CC3)cc2c1 [Example 236, N-[5-[2-methyl-4-[(3S)-pyrrolidin-3-yl]oxy-pyrazol-3-yl]pyrazolo[1,5-a]pyridin-2-yl]cyclopropanecarboxamide]
pIC50 (SIK2 [2]): 7.54
